Measurements from patent publication US20050048563A1, “Membrane molecule indicator compositions and methods” (Novasite Pharmaceuticals, Inc, priority 2000, published 2005).

Experiments:
[1] = tested on: PLC; format: cell-based, mouse
[2] = tested on: adrenal glomerulosa cells; test: Confocal PLCδ1PH-GFP translocation in adrenal glomerulosa cells; format: cell-based, bovine; conditions: angiotensin II stimulation, 2 mM Sr^2+ or Ca^2+

For `CCCCCCCC/C=C\CCCCCCCC(=O)OCC(O)COP(=O)(O)O` (centres unmarked) [LPA, 1-oleoyl LPA], the “translocation amplitude relative to BK response control / BK-induced peak values” [1] was 25%.

With `NCCc1c[nH]cn1` [histamine] the “duration of translocation response” value [1] was at least 15 min and the “translocation amplitude relative to BK response control / BK-induced peak values” [1] was 40%.

In the case of aluminum fluoride [A1F^4−], the “desensitization of PLC activation” value [1] is reported as “no desensitization” and the “onset of PLC activation” value [1] is reported as “slow”.

For “angiotensin II (DRVYIHPF; Angiotensin-2; UniProt P01019 25-32, looked up)”, the “translocation of PLCδ1PH-GFP in presence of Sr^2+ versus Ca^2+” value [2] was “not significantly different”.

For neurokinin A [NKA], the “desensitization of PLC activation on repeated NKA pulses” value [1] was “incremental partial homologous desensitization” and the “translocation of the probe (PLC activation profile)” value [1] was “fast and near-complete translocation”.
